Patent publication US8889731B2, “Compounds, compositions and methods for repelling blood-feeding arthropods and deterring their landing and feeding” (Contech Enterprises Inc., priority 2007, dated 2014)

Test system: Aedes aegypti
Assay: Arm-in-cage repellent/deterrent bioassay on exposed human forearm (modified WHO protocol), Aedes aegypti
Type: in vivo
Procedure: Candidate repellents and deterrents were bioassayed according to a modified protocol from the World Health Organization (1996). At least 1 hour prior to each bioassay, 75 host-seeking non blood-fed, nulliparous, 5- to 8-day-old female Aedes aegypti, Anopheles gambiae or Culex quinquefasciatus were placed into a wood-framed cage (26.5 cm on each side and 42.5 cm high) with a wooden floor, screened mesh sides and top, and a clear acrylic front fitted with a cotton stockinette sleeve (10 cm diameter). The test subject's arm was covered with an elbow-length polyethylene glove with an excised patch (16.6 cm long, 6 cm wide) to expose the ventral forearm of the test subject. Candidate deterrents were formulated in mineral (paraffin) oil and applied to the exposed forearm 5 min prior to inserting the arm into the cage. The inserted arm remained in the cage for 3 min every 30 min. Prior to each 3-min bioassay period, the hand of the untreated arm was inserted into the cage to ascertain that it received 10 bites within 30 sec as an indication of “biting pressure”.
The bioassay was terminated when the treated arm received ≧2 bites in one 3-min bioassay period or one bite in each of two consecutive bioassay periods. The time elapsed from experiment initiation to first bite was recorded as deterrent failure or complete protection time.
N,N-diethyl-m-toluamide formulated in ethanol at a corresponding dose served as a positive control, and mineral oil by itself served as a negative control. On each day, only one candidate compound was tested, ensuring that any residual material in the chamber had disappeared before the next bioassay.
To determine the repellence and deterrence of 8-allylsulfanyloctan-1-ol against Aedes aegypti, a 5%, 10% or 25% formulation of 8-allylsulfanyloctan-1-ol in mineral oil was applied in Experiments 1-3 at a dose of 1.5 mg (total composition) per cm^2 to the skin of the test person, and was bioassayed according to the protocol described under EXAMPLE 2. In Experiment 4, mineral oil by itself served as a negative control and was bioassayed at the same dose (1.5 mg per cm^2) as in Experiments 1-3. Each of Experiments 1-4 was replicated four times.
To compare the repellence and deterrence against Aedes aegypti caused by 8-allylsulfanyloctan-1-ol as a single active ingredient and by 8-allylsulfanyloctan-1-ol in combination with vanillin as a second active ingredient, we tested a 6.7% emulsion of vanillin (Experiment 14), a 6.7% emulsion of 8-allylsulfanyloctan-1-ol (Experiment 15), and a 13.4% emulsion of 8-allylsulfanyloctan-1-ol plus vanillin (1:1 ratio) (Experiment 16). 8-Allylsulfanyloctan-1-ol and vanillin were formulated in Emulsion No. 1 (see EXAMPLE 9). In each of Experiments […], test stimuli were applied at a dose of 1.5 mg per cm^2 to the skin of the test person, and were bioassayed according to the protocol described under EXAMPLE 2. In Experiment 17, Emulsion No. 1 served as a positive control and was tested at the same dose (1.5 mg per cm^2) as in Experiments 14-16.
To be able to compare the repellence and deterrence caused by N,N-diethyl-m-toluamide and by 8-allylsulfanyloctan-1-ol plus vanillin in Emulsion No. 1 (EXAMPLE 9), Experiment 26 tested a 6.7% formulation of N,N-diethyl-m-toluamide in ethanol (the best formulant for DEET) for protection from bites by Aedes egypti. In each replicate, a dose of 1.5 mg per […] was applied to the skin of the test person and bioassayed according to the protocol described under EXAMPLE 2.
To be able to further compare the deterrence caused by N,N-diethyl-m-toluamide with that caused by 8-allylsulfanyloctan-1-ol plus vanillin, Experiment 27 tested a 10.4% formulation of N,N-diethyl-m-toluamide in ethanol, and Experiment 28 tested 8-allylsulfanyloctan-1-ol (10.4%) plus vanillin (7.9%) in Emulsion No. 2 (EXAMPLE 10). […]

SMILES: C=CCSCCCCCCCCO [Compound 24, 8-allylsulfanyloctan-1-ol]
- protection from bites, average duration (5% formulation in mineral oil, 1.5 mg per cm^2, Experiment 1): 52 min
- protection from bites, average duration (6.7% single active in Emulsion No. 1, 1.5 mg per cm^2, Experiments 14, 15): 77 min
- protection from bites, average duration (10% formulation in mineral oil, 1.5 mg per cm^2, Experiment 2): 157 min
- protection from bites, average duration (25% formulation in mineral oil, 1.5 mg per cm^2, Experiment 3): 305 min
